Molecules are shown by their SMILES. Where only a bound is given, the exact number is not on record here.

The melting point is the temperature of the solid-liquid transition. `CCCCOC(=O)COc1ccc(C(=O)Nc2cc(C)ccc2Sc2ccccc2-c2nnn[nH]2)cc1` displayed a melting point of 146 to 148 °C.
Next, `N#Cc1coc2cc(O)ccc2c1=O`: 292 to 293 °C.
Then `O=C1NC(=O)C(Cc2ccc(OCCON=Cc3cccnc3)cc2)S1` (configuration not stated), with 155 to 157 °C.
Turning to `OC1CSC(Oc2ccc(-c3ccc(OC(F)(F)F)cc3)nc2)C(O)C1O` (configuration not stated), the melting point was 184 to 186 °C.
Next, `COC(=O)C1=C(C)NN=C(c2ccccc2)C1c1ccccc1` (configuration not stated): 158 °C; `O=C1Cc2cc(-n3cccc3)ccc2C(=O)N1`: 212 to 213 °C.
Then `Cc1nc2cccc(N)c2c(=O)n1[C@@]1(C)CCC(=O)NC1=O`, with 295 to 297 °C; and `CCCCCCC(C)(C)c1cc(OCc2ccccc2)c(C2=C(CC(=O)O)CCC(C)C2)c(OCc2ccccc2)c1` (configuration not stated), with 69 to 70 °C.
Then `CC1(C)Oc2ccc(C#N)cc2[C@@H](N2CCN(C(=O)c3ccco3)CC2=O)[C@@H]1O` (relative stereo), with 226 to 229 °C; and `CCOC(=O)c1cn(C)nc1C(F)(F)F`, with 61.5 to 63.1 °C; and `CCOC(=O)c1cn(Cc2cccnc2)nc1OCc1cccnc1`, with 120 to 121 °C.
The compound `COc1cc(Oc2cccc(SC(F)(F)F)c2)nc(C(=O)NC(C)C)c1` yielded a melting point of 70 to 76 °C.
As for `Cc1ccc(S(=O)(=O)NCCN2C(=O)C3(CCCC3)c3ccccc32)cc1`, the melting point was determined as 60 °C.
Compound `CSc1sc(-c2nnco2)c2c1C(=O)CC(C)(C)C2` came in with a melting point of 185 to 189 °C.
With `O=C1c2ccccc2C(=O)N1C(Cc1ccccc1)C1CC(Cc2ccccc2)=NO1` (configuration not stated), the melting point is 134 to 136 °C.
Then `CC1=C(/C=C/C(C)=C/C=C/C(C)=C\C(=O)O)C(C)(C)C(O)CC1` (configuration not stated), with 152 to 154 °C.
As for `O=C(c1ccccc1)c1ccncc1Cl`, the melting point is 49 to 51 °C.
On to `CCC(=O)OCOC(=O)Oc1ccc([N+](=O)[O-])cc1`, for which the melting point lay in the range of 35 to 36 °C.
Next, `Cc1cc2c(s1)c(=O)c(C(N)=O)cn2C`: 328 to 330 °C; `CN1CCN(c2ccc(C(=O)NCCCCCCCCCCO[N+](=O)[O-])cn2)CC1`: 62 to 64 °C; `COC(=O)COc1ccc(C(=O)CN(C)C(=O)c2ccc(C(=N)N)cc2)cc1OCC(=O)OC`: 177 to 178 °C.
Next, `Cc1ccc(N(c2ccc(C)cc2)c2c(F)cc(F)c(F)c2F)cc1`: 95 °C; `COCCOc1nc(N)nc(-c2ccccc2)c1-c1ccc(=O)n(C(C)C)n1`: 128 to 130 °C; `CCCC(=O)c1ccc(OCCCCCC(=O)O)c(Cl)c1Cl`: 94 to 95 °C.
The compound `COc1cn(-c2ccc(N3CCN(C)C3=O)cc2F)nc(-c2ccnn2-c2ccccc2)c1=O` showed a melting point of 208 to 209 °C.
Next, `C=CCn1cc(C(=O)O)c(=O)c2cc(F)c(N3CCN(Cc4ccccc4)CC3)cc21`: 209 °C; `COc1ccccc1CN[C@H]1CCCN(CCCCCCCc2ccccc2)[C@H]1c1ccccc1` (relative stereo): 67 to 77 °C.
Next, `O=C1C(O)=C(Br)C(=O)c2ccc(F)cc21`: 183 °C.
Next, `Cc1cc(C)c(-n2c(C)c(C)c3c(C#N)nc(C)nc32)c(C)c1`: 188 to 190 °C; `Cc1ccc(S(=O)(=O)NC(=O)Nc2cc(C)c(S(=O)(=O)C[N+](=O)[O-])c(C)c2)cc1`: 150 to 155 °C; `CCn1cc(CN(C(=O)C2CCc3ccccc32)c2ccc(C(C)C)cc2)cn1` (configuration not stated): 83 to 84 °C.
`O=c1[nH]c2cc(F)ccc2c(=O)n1CCCN1CC=C(c2ccc(Cl)cc2)CC1` gave a melting point of 197 to 198 °C.
In turn, `O=C(O)COc1c[nH]cc(Cl)c1=O` came in with a melting point of 253 to 255 °C.
Compound `COCCNC(=O)c1cc(F)cc(-c2cccc3cc(Cc4cccc(C(F)(F)F)c4)sc23)c1` had a melting point of 103 to 104 °C.
As for `Cc1cc(-c2cc(C(F)(F)F)n3ncc(-c4nc(-c5cccc(S(N)(=O)=O)c5)no4)c3n2)ccc1C(F)(F)F`, the melting point is 270 °C.
In turn, `COc1ccc(C(=O)C(CCC(C)=O)c2ccc(OC)cc2)cc1` (configuration not stated) registered a melting point of 62 to 65 °C.
Compound `Cc1cc(-c2ccc(Cl)c(C)c2)nc(-c2cccc(-c3cccc(S(N)(=O)=O)c3)c2)n1` showed a melting point of 201 °C.
Next, `Cn1nc(C(F)(F)F)c(C(=O)Nc2cccc3c2CCC3(C)C)c1Cl`: 120 °C.
Then `CCCC=C1SC(=S)N(N=c2sc3ccccc3s2)C1=O`, with 236 to 238 °C; and `CN(C)Cc1cc(C(N)=O)ccc1OCCN(C)Cc1ccc(Cl)cc1`, with 123 to 124 °C.
Then `CN1C(=O)N(C[C@H](C(=O)O)[C@@H](CC2CCCC2)C(=O)N2CCCCC2)C(=O)C1(C)C`, with 111 to 114 °C; and `O=C1NC(=O)C(c2ccc(Cl)c(Cl)c2)N1` (configuration not stated), with 223 to 225 °C.
For `CC(C)(C)c1nc(-c2nn(-c3ccc(F)cc3F)c3c2C2CCC3C2)no1` (configuration not stated), the melting point was 119 to 121 °C.
Compound `CS(=O)(=O)Nc1cccc(Nc2nc(NC3CCCC3)c3nc[nH]c3n2)c1` registered a melting point of 234 to 239 °C.
With `CN(C)Nc1nc(Cl)nc2c1ncn2C1OC(CCl)C(O)C1O` (configuration not stated), the melting point lay in the range of 188 to 189 °C.
Next, `CC(C)(C)OC(=O)N1CC=C(c2ccnc(C(=O)N(O)Cc3ccccc3)c2)CC1`: 125 °C.
Next, `COC(=O)c1ccc(S(C)(=O)=O)c(CBr)c1Cl`: 77 to 78 °C; `CCOC(=O)CCc1ccc(OCCCc2cn(-c3ccc(C(F)(F)F)cn3)nc2OCC)cc1OCc1ccccc1`: 80 to 81 °C; `Cc1cccc(NC(=O)NC2N=C(CO)c3cccc(C)c3N(CC(=O)N3CCCCCCC3)C2=O)c1` (configuration not stated): 214 to 216 °C.
Next, `O=c1[nH]c2cc(Cl)cc(Cl)c2cc1Br`: above 300 °C; `COc1cccc2c(Cc3nc(-c4ccccc4)co3)coc12`: 101 to 103 °C.
The compound `C=C(c1cc(F)ccc1OCc1c(Cl)cccc1Cl)n1ccnc1` registered a melting point of 108 to 110 °C.
Next, `O=Cc1cnc(Oc2ccccc2)s1`: 50 °C; `CCN(c1cccc2cc(-c3ncc(COc4ccc(C(=O)OC)cc4)s3)[nH]c12)S(=O)(=O)c1cccs1`: 191 °C; `CC(C)Nc1nc2ccccc2n2cnnc12`: 133 to 135 °C.
Next, `CC(c1oc2ccccc2c(=O)c1-c1cccc(F)c1)n1nc(-c2cc(O)ccc2Cl)c2c(N)ncnc21` (configuration not stated): 192 to 195 °C; `CN(C)N1CSC(=Cc2cc(C(C)(C)C)c(O)c(C(C)(C)C)c2)C1=O`: 138 to 141 °C; `COc1cc2nc(OC)n3cnnc3c2cc1OC`: 245 to 250 °C.
Next, `CCOC(=O)c1nc(NC)sc1C(=O)CC`: 84 to 86 °C.
In turn, `C=CCOC(=O)c1c(Oc2nc(OC)cc(OC)n2)ccc2[nH]c(C)c(N)c12` returned a melting point of 132 to 135 °C.
Next, `COc1cc(Nc2c(C#N)cnc3cc(Oc4ccncc4)c(OC)cc23)c(Cl)cc1Cl`: 267 to 269 °C; `CCCn1c(=O)n(C2OC(CO)C(O)C2O)c2nc(N)[nH]c(=O)c21` (configuration not stated): 151 to 153 °C.
Next, `O=C(c1ccc(Cl)cc1)N1CCCC2=C1CCc1cc(Cl)ccc12`: 189 to 191 °C; `CC(C)(C)OCC1CN(c2ccc3cc(O)ccc3c2)C(=O)O1` (configuration not stated): 177 to 178 °C; `Nc1nnc(OCc2ccccc2)s1`: 173 to 175 °C.
Next, `Cc1nnc2n1-c1ccccc1C(c1ccccc1)=NC2`: 216 to 218 °C; `CCOC(=O)c1sc(N)nc1-c1ccc(Cl)cc1`: 198 to 200 °C.
Take `CC1(C)OC(c2ccc(S(N)(=O)=O)cc2)=C(I)C1=O`: the melting point was 179 to 180 °C.
Next, `CS(=O)(=O)c1ccc(-c2nc(C(F)(F)F)nc(OS(=O)(=O)c3cccc4ccccc34)c2-c2ccccc2)cc1`: 204 to 206 °C.
`CC1COCc2nc3cnc4cc(C=CS(C)(=O)=O)ccc4c3n21` (configuration not stated) showed a melting point of 249 to 250 °C.
`ON=CCc1ccc(F)cc1` yielded a melting point of 113 to 115 °C.
In turn, `CC(C)(C)c1cc(CCc2cc(F)cc(F)c2NC(=O)NC(C)(C)c2ccc(Cl)c(Cl)c2)cc(C(C)(C)C)c1O` showed a melting point of 224 to 226 °C.
With `CCCCc1oc2ccccc2c1C(=O)NCc1ccc2c(-c3ccc(C(C)(C)C)cc3)c(OCc3nnn[nH]3)ccc2c1`, the melting point lay in the range of 75 to 78 °C.
Next, `CCN1CCCC1CNC(=O)c1c(OC)c(Cl)cc(Br)c1OC` (configuration not stated): 124 to 125 °C; `Fc1ccccc1-c1c(OCc2nc3n(n2)CCCC3)nn2c(-c3ccccc3F)nncc12`: 150 to 152 °C; `Cc1c[nH]c(=O)c(NC(=O)c2ccccc2F)c1`: 230 to 232 °C.
`Cc1cc(SCCCSc2nnnn2C)nc(N)n1` yielded a melting point of 119 to 120 °C.
Next, `COc1cc2c(cc1OCc1ccccc1)C(c1ccccc1)NCC2` (configuration not stated): 123 to 125 °C; `CC(=O)c1cc(C(=O)O)c(=O)[nH]c1C`: 238 to 241 °C; `CC(C)c1cccc(C(C)C)c1NC(=O)CSCC(=O)O`: 168 to 169 °C.
Next, `CC(=O)NCC1CN(c2ccc(-n3cccc3)c(F)c2)C(=O)O1` (configuration not stated): 198 to 200 °C; `CCOCOC1CCC2(C)C(=CCC3C2CCC2(C)C(C(C)CCCC(C)C)CCC32)C1` (configuration not stated): 64 to 66 °C; `O=C(Nc1ccc(-n2nc(C(F)(F)F)cc2C(F)(F)F)cc1)Nc1ccc([N+](=O)[O-])cc1Cl`: 229 to 230 °C.
Then `CC(C)c1nc(CO)[nH]c1Sc1cc(Cl)cc(Cl)c1`, with 191 to 192 °C.
As for `CCC(CO)(CO)CBr`, the melting point was 78 to 80 °C.
Next, `COc1ccc(-c2coc3ccc(-c4nnc(SCc5cccc(OC)c5)o4)cc23)cc1`: 118 to 119 °C.
Next, `CS(=O)(=O)Nc1nn(CCN2CCCCC2)cc1-c1ccccc1`: 121 °C.

The record behind these values is a melting point compilation (Tetko et al.; mined from patent text by program, amines drawn as free bases though some values may be those of a salt).
